Reference: US20080107727A1, “Multiple Unit Oral Sustained Release Preparation and Production Method Thereof” (priority 2005, published 2008)

Assay: Gastrointestinal absorption of imidafenacin in rats, in-situ loop technique
Format: in vivo, Male Wistar rats
Conditions: rat in-situ loop, 0.2 mL of 500 μg/mL isotonic solution, after 1 hour
Description: In designing oral sustained release preparations of imidafenacin, it is necessary to know the absorption properties of imidafenacin in the gastrointestinal tract. We therefore examined the gastrointestinal absorption properties of imidafenacin in rats using the in-situ loop technique. The specific procedures were as follows: Male Wistar rats (aged 7 to 9 weeks) were dissected under anesthesia with pentobarbital sodium and the common bile duct was ligated. Loops were prepared from the stomach, duodenum, jejunum, ileum and colon. 0.2 mL each of an isotonic solution (500 μg/mL) of imidafenacin was injected into the loops in […]. After 1 hour, the lumen of the loops was washed sequentially with water and 0.01 mol/L hydrochloric acid and the wash was collected from each loop. The concentration of imidafenacin in the wash was determined by high performance liquid chromatography. The standard curve was determined by applying the least squares method to the ratio of the peak areas between the imidafenacin concentration for a similarly treated standard specimen and the concentration of internal standard of imidafenacin determined by chromatography. The concentration of imidafenacin in the wash for a specimen was determined by substituting the ratio of the peak area into the standard curve. The absorption of imidafenacin for each loop was calculated by the equations (1) and (2) below. The results are shown in FIG. 5. % Remaining imidafenacin in a loop=(Conc. of imidafenacin in the wash for the loop)×25 (1) % Absorption of imidafenacin in a loop=100-% Remaining imidafenacin in that loop (2)

absorption of imidafenacin in colon loop: Some absorption
absorption of imidafenacin in small intestine loops (duodenum, jejunum, ileum): effectively absorbed
absorption of imidafenacin in stomach loop: less significant
SMILES: Cc1nccn1CCC(C(N)=O)(c1ccccc1)c1ccccc1 [imidafenacin, 4-(2-methyl-1-imidazolyl)-2,2-diphenylbutylamide]
